Molecules are shown by their SMILES.

The assay concerns KRAS G12D mutant human metastatic pancreatic adenocarcinoma cells AsPC-1. In words: 3D cell proliferation inhibition assay, AsPC-1. Format: cell-based. Conditions: Homo sapiens, ASPC1, 168 h, 7 days, CTG. The procedure: Inhibition of 3D cell proliferation by the compounds was investigated on KRAS G12C mutant human non-small cell lung cancer cells NCI-H358 (ATCC or Stem Cell Bank, Chinese Academy of Sciences), KRAS G12D mutant human metastatic pancreatic adenocarcinoma cells AsPC-1 (ATCC), KRAS G12V mutant human lung adenocarcinoma cells NCI-H441 (ATCC), and KRAS G13D mutant human colorectal adenocarcinoma epithelial cells DLD-1 (ATCC). The specific procedures were as follows:
200 nL of compound solution diluted in a gradient was added to corresponding microwells of a 384-well low-adsorption microwell plate (Corning, 3657) using an Echo sonic pipetting system (Labcyte, Echo 550), so that the final concentration of the test compound in the reaction system was in a range of 20000 nM-0.008 nM. Then 40 μL of cells at a certain density were added to the corresponding microplate. In addition to test wells for the test compounds, both a DMSO control well and a medium control well were set, with the DMSO control well containing DMSO and cells and the medium well containing only medium. After sample loading, the plate cover was applied, and the 384-well low-adsorption microplate was incubated in an incubator at 37° C. with 5% carbon dioxide for 7 days. After 7 days, the microplate was taken out, and 40 μL of CTG reagent (Promega, G9683) was added to each well. The plate was incubated at room temperature for 30 min and read on a microplate reader EnVision using the chemiluminescence program. The inhibition rates of the compounds at each concentration were calculated by the formula for the percentage inhibition of cell proliferation: inhibition rate %=(mean value of DMSO control group−single concentration reading value of compound)/(mean value of DMSO control group−mean value of medium control group)×100, and then nonlinear curve fitting was performed by GraphPad Prism 8 in the logarithmic concentration-inhibition rate to obtain the IC50 values of the compounds.
Regarding `COc1cc2nc(C)nc(N[C@H](C)c3cc(N)cc(C(F)(F)F)c3)c2cc1[C@H]1CC[C@H](C(=O)N2CCN(CCC3CCC4(CC3)CCN(C(=O)c3ccc(Cl)c(N5CCC(=O)NC5=O)c3)CC4)CC2)CC1` [Example 1, 1-(5-(9-(2-(4-((1R,4R)-4-(4-(((R)-1-(3-amino-5-(trifluoromethyl)phenyl)ethyl)amino)-7-methoxy-2-methylquinazolin-6-yl)cyclohexane-1-carbonyl)piperazin-1-yl)ethyl)-3-azaspiro[5.5]undecane-3-carbonyl)-2-chlorophenyl)dihydropyrimidine-2,4(1H,3H)-dione], the IC50 – broadly, the concentration that inhibits the measured activity by half – fell in the range of 15 to 30 nM.

For the compound `COc1cc2nc(C)nc(N[C@H](C)c3cc(N)cc(C(F)(F)F)c3)c2cc1[C@H]1CC[C@H](C(=O)N2CCN(CC3CCC4(CC3)CCN(C(=O)c3ccc(Cl)c(N5CCC(=O)NC5=O)c3)CC4)CC2)CC1` [Example 2, 1-(5-(9-((4-((1R,4R)-4-(4-(((R)-1-(3-amino-5-(trifluoromethyl)phenyl)ethyl)amino)-7-methoxy-2-methylquinazolin-6-yl)cyclohexane-1-carbonyl)piperazin-1-yl)methyl)-3-azaspiro[5.5]undecane-3-carbonyl)-2-chlorophenyl)dihydropyrimidine-2,4(1H,3H)-dione], the half-maximal inhibitory concentration (IC50) lay in the range of 100 to 1000 nM.

The compound `COc1cc2nc(C)nc(N[C@H](C)c3cccc4c3CCS4(=O)=O)c2cc1[C@H]1CC[C@H](C(=O)N2CCN(CC3CCC4(CC3)CCN(C(=O)c3ccc(Cl)c(N5CCC(=O)NC5=O)c3)CC4)CC2)CC1` [Example 10, 1-(2-chloro-5-(9-((4-((1R,4R)-4-(4-(((R)-1-(1,1-dioxo-2,3-dihydrobenzo[b]thiophen-4-yl)ethyl)amino)-7-methoxy-2-methylquinazolin-6-yl)cyclohexane-1-carbonyl)piperazin-1-yl)methyl)-3-azaspiro[5.5]undecane-3-carbonyl)phenyl)dihydropyrimidine-2,4(1H,3H)-dione] yielded an IC50 of 30 to 50 nM. `COc1cc2nc(C)nc(N[C@H](C)c3cc(N)cc(C(F)(F)F)c3)c2cc1[C@H]1CC[C@H](C(=O)N2CCC(CCOCC3CCN(C(=O)c4ccc(Cl)c(N5CCC(=O)NC5=O)c4)CC3)CC2)CC1` [Example 19, 1-(5-(4-((2-(1-((1R,4R)-4-(4-(((R)-1-(3-amino-5-(trifluoromethyl)phenyl)ethyl)amino)-7-methoxy-2-methylquinazolin-6-yl)cyclohexane-1-carbonyl)piperidin-4-yl)ethoxy)methyl)piperidine-1-carbonyl)-2-chlorophenyl)dihydropyrimidine-2,4(1H,3H)-dione] had an IC50 of 100 to 1000 nM. For `COc1cc2nc(C)nc(N[C@H](C)c3cc(N)cc(C(F)(F)F)c3)c2cc1[C@H]1CC[C@H](C(=O)N2CCN(CCOCC3CCN(C(=O)c4ccc(Cl)c(N5CCC(=O)NC5=O)c4)CC3)CC2)CC1` [Example 33, 1-(5-(4-((2-(4-((1R,4R)-4-(4-(((R)-1-(3-amino-5-(trifluoromethyl)phenyl)ethyl)amino)-7-methoxy-2-methylquinazolin-6-yl)cyclohexane-1-carbonyl)piperazin-1-yl)ethoxy)methyl)piperidine-1-carbonyl)-2-chlorophenyl)dihydropyrimidine-2,4(1H,3H)-dione] the value was 100 to 1000 nM; for `CNCc1ccccc1-c1csc([C@@H](C)Nc2nc(C)nc3cc(OC)c([C@H]4CC[C@H](C(=O)N5CCN(CC6CCC7(CC6)CCN(C(=O)c6ccc(OC)c(N8CCC(=O)NC8=O)c6)CC7)CC5)CC4)cc23)c1` [Example 73, 1-(2-methoxy-5-(9-((4-((1R,4R)-4-(7-methoxy-2-methyl-4-(((R)-1-(4-(2-((methylamino)methyl)phenyl)thien-2-yl)ethyl)amino)quinazolin-6-yl)cyclohexane-1-carbonyl)piperazin-1-yl)methyl)-3-azaspiro[5.5]undecane-3-carbonyl)phenyl)dihydropyrimidine-2,4(1H,3H)-dione], 100 to 1000 nM.

(Values after patent publication US20240261417A1, “SOS1 DEGRADING AGENT AND PREPARATION METHOD THEREFOR AND APPLICATION THEREOF” (SHANGHAI LEADINGTAC PHARMACEUTICAL CO. LTD., priority 2021, published 2024).)
